Assay results from patent US20040043084A1, “Method of enhancing biological activity of plant extracts” (priority 2002, published 2004).

Experiments:
[1] = tested on: UV induced peroxidation of lipids; test: inhibition of UV induced peroxidation of lipids (liposomal assay, Pelle et al.); type: biochemical
From the text: Caffeine was subjected to bioconversion at concentration as indicated(w/v) in water or in a mixture of structured waters (I/S 60/40).
P. ulei is an equatorial plant known to have anti-inflammatory properties. A. purchyriminor is an equatorial plant containing inhibitors of PAF (Platelet Activating Factor). […] The untreated extracts at a concentration 1% each, are combined and diluted to 0.1% each and subjected to bioconversion.

skin = test: Skin exfoliation via D-Squame discs and image analysis; type: in vivo, human; conditions: tested previously in a base, activity over the placebo, 1.0% active in formula
From the text: The subjects included in this study were 120 females between the ages of 21 and 65 years, all meeting the screening criteria of good health and not being pregnant or lactating. The subjects reported for testing without moisturizers or any other products on their hands and baseline measurements were taken. They were randomly assigned to one of the following eight treatment groups. They were given the product to take home and self-administer to their right hand only, twice a day in the morning after washing and in the evening at least 15 minutes before bedtime for four weeks. The left hand served as the untreated control site. The subjects were only allowed to use the test product and specifically log its use in a daily diary provided. At the end of two and four weeks the subjects returned for testing without applying the product for at least 12 hours and they were re-evaluated under the same conditions. Skin Exfoliation via D-Squame Discs Method and Image Analysis Four D-Squame discs were firmly and evenly pressed on the face and the back of each hand with a hand held uniform pressure device and removed by gently pulling away from the skin. The D-Squame discs were mounted on clear microscope slides and labeled according to panelist name and visit. Desquamation was evaluated from the D-Squame discs via the image analyzer. Skin evaluation was carried out before treatment, and after two and four weeks of treatment. The OPTIMA image analyzer was used to evaluate skin flakiness. The D-Squame samples containing the stratum corneocytes are placed under a camera on top of a light table and each image is imported into the image analyzer. The average Gray Value corresponding to the sample density is measured. The denser the sample the higher the Gray value difference. Skin exfoliation was evaluated by measuring the amount of flakes removed from the skin surface using D-Squame discs and analyzing them via the IA method. In this study several ferment combinations of N-Acetyl D-Glucosamine and Mannose 6-Phosphate vs. the placebo, the broth and the ferment as controls, for their effect on skin desquamation. […] Another series of tests were conducted as described above. The concentration of N-acetyl D-glucosamine and mannose 6-phosphate was reduced by 10 fold without compromising their activity. Table 4 below summarizes the actual active concentrations used with a brief description along with their activity.

Row | SMILES | Inhibition of lipid peroxidation ([1]; Caffeine Concentration 0.05%) [%] | Inhibition of lipid peroxidation ([1]; Caffeine Concentration 0.25%) [%] | Inhibition of lipid peroxidation ([1]; Caffeine Concentration 0.5%) [%] | Decrease in Flakiness 2 wk (skin) [%] | Decrease in Flakiness 4 wk (skin) [%] | further results
1 | Cn1c(=O)c2c(ncn2C)n(C)c1=O [Caffeine Non bioconverted I/S water, Caffeine] | 24 | 58 | 66 |  |  | 
2 | Oc1ccc(C=Cc2cc(O)cc(O)c2)cc1 [Resveratrol Nonbioconverted, Resveratrol] |  |  |  |  |  | Anti-oxidant activity ([1]; Concentration of Resveratrol in S water 0.05%): 1.8%; Anti-oxidant activity ([1]; Concentration of Resveratrol in S water 0.25%): 8%; Anti-oxidant activity ([1]; Concentration of Resveratrol in S water 0.5%): 39%
3 | Cn1c(=O)c2c(ncn2C)n(C)c1=O [Caffeine Non bioconverted H2O, Caffeine] | 30 | 54 | 66 |  |  | 
4 | O=C[C@@H](O)[C@@H](O)[C@H](O)[C@H](O)COP(=O)(O)O [1% Mannose 6-Phosphate, Mannose 6-Phosphate] |  |  |  | 22 | 29 | 
5 | CC(=O)N[C@H]1C(O)O[C@H](CO)[C@@H](O)[C@@H]1O (stereo partly shown) [1% N-Acetyl Glucosamine, N-Acetyl Glucosamine] |  |  |  | 16 | 27 | 
